Source: patent US20030165447A1, “Topical leave-on compositions containing pantothenic acid and its derivatives to reduce the need for underarm shaving” (The Procter & Gamble Company, priority 2001, published 2003)

Experiment: Acid or hold stability of sample compositions held at 85° C. for 24 hours
Assay type: physicochemical
Conditions: heated liquid held at 85° C., 24 hour period; 3.00% pantothenic acid derivative with 25.25% aluminum zirconium trichlorohydrate
Description: The topical leave-on compositions of the present invention are evaluated to determine the relative acid or hold stability of selected pantothenic acid derivatives as defined herein (e.g., ethyl panthenol, panthenyl triacetate) relative to other pantothenic acid derivatives (e.g., panthenol, calcium pantothenate). In this context, acid or hold stability is found to correlate with the lack of visibly apparent crystal formation within or extending from the sample product or by the lack of any significant off-odor development, over a 24 hours period at an elevated hold temperature of 85° C.
Each sample composition is formulated with the above-described ingredients and then held at 85° C. as a heated liquid for a 24 hour period and evaluated during that that period of time for any visibly apparent crystal formations within or extending from the formulation, and for any off-odor development. The evaluated product is maintained in the heated liquid state at 85° C. during the evaluation period to assimilate the elevated processing or hold temperatures often associated with the making of such antiperspirant and deodorant products, and to assimilate those conditions that favor acid-degradation of pantothenic acid derivatives as described herein.

Off-odor formation	Structure (SMILES)	Visible crystal formation
little or no off-odor development	CCOCCCNC(=O)[C@H](O)C(C)(C)CO [ethyl panthenol]	do not exhibit the undesirable crystal formation
little or no off-odor development	CC(=O)OCCCNC(=O)[C@H](OC(C)=O)C(C)(C)COC(C)=O [panthenyl triacetate]	do not exhibit the undesirable crystal formation
